Key:
Type in all cases: cell-based
Details in all cases: medical agent for stimulation in cultured human dermal fibroblast system; no data shown
Bmal1 clock gene = test: Expression amount of Bmal1 clock gene in cultured human dermal fibroblast (RT-PCR, relative to RPLP0)
Protocol: (§1) Moreover, as the clock gene, an amount of expression of a Bmal gene (typified by Bmal1) or a Period gene (typified by Period1) in connection with the core system was measured. As a hyaluronic acid synthase gene, an amount of expression of hyaluronic acid synthase gene 2 (HAS2) was measured. […] In experiments described below, a gene expression amount after 16 hours or 2 hours from the stimulation was used as an index, respectively, and an effect on promotion of expression of the Bmal gene, the Period gene and the HAS2 gene being a test substance was evaluated.
(§2) As a cultured human dermal fibroblast, a commercially available normal human dermal fibroblast derived from adult skin (Cell Application, Inc) was purchased, and used for an experiment. Seeding was made in a DMEM culture medium prepared by adding 10% FBS, 20 mM HEPES, Glutamax and an antibacterial agent, and culture was made at 37° C. under 5% CO2. […] From the cell taken therefrom, RNA was extracted using a commercially available RNA extraction kit, and an expression amount of a clock gene (Period1, Bmal1) and a hyaluronic acid synthase gene (HAS2) was measured using a commercially available PCR primer (Perfect Real Time Primer, TAKARA BIO INC.) according to an RT-PCR method. […]

Period1 clock gene = test: Expression amount of Period1 clock gene in cultured human dermal fibroblast (RT-PCR, relative to RPLP0)
Protocol: as §1, §2

[1] = system: HAS2 hyaluronic acid synthase gene; test: Expression amount of HAS2 hyaluronic acid synthase gene in cultured human dermal fibroblast (RT-PCR, relative to RPLP0)
Protocol: as §1, §2

SMILES	time of peaked expression amount of Bmal1 after stimulation (circadian rhythm) (Bmal1 clock gene)	time of peaked expression amount of Period1 after stimulation (circadian rhythm) (Period1 clock gene) [h]	time of peaked expression amount of HAS2 after stimulation (circadian rhythm) [1]
C[C@]12CCC(=O)C=C1CC[C@@H]1[C@@H]2[C@@H](O)C[C@@]2(C)[C@H]1CC[C@]2(O)C(=O)CO [cortisol]	approximately 16 hours	2	approximately 16 hours
C=C[C@@]1(C)CC(=O)[C@]2(O)[C@@]3(C)[C@@H](O)CCC(C)(C)[C@@H]3[C@H](O)[C@H](OC(C)=O)[C@@]2(C)O1 [forskolin]	approximately 16 hours	2	approximately 16 hours

— US20140255527A1, “Expression Promoting Agent For Clock Gene And Hyaluronic Acid Synthase Gene” (SHISEIDO COMPANY, LTD., priority 2011, published 2014)
